Patent US8772199B2, “Herbicidal compositions for tolerant or resistant maize crops” (Bayer Intellectual Property GmbH, priority 1998, dated 2014)
Where a name gives a salt, the structure may show the parent alone.

What was measured:
Experiment in all cases: Field trial with maize, herbicidal action
Type in all cases: in vivo
[1] = test system: AGRRE; details: application 2-4-leaf stage, scoring 3 weeks after application
How it was run: (§1)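 Weed control is expressed as visually estimated percentage destruction of aerial plant parts, where 50% means half of plants and green parts destroyed, compared with untreated field plots. Ratings were taken 2–8 weeks after application in herbicide-resistant maize and averaged across four plots.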

[2] = test system: Fagopyrum esculentum; details: for Herbicidal action (%) against Fagopyrum esculentum: application 3- to 4-leaf stage, scoring 24 days after application; for Herbicidal action (%) against Fagopyron esculentum: application 2- to 4-leaf stage, scoring 26 days after application
How it was run: as §1

[3] = test system: SETVI; details: application 2-4-leaf stage, scoring 3 weeks after application
How it was run: as §1

## CP(=O)(O)CCC(N)C(=O)O (stereo not shown) [(A1.2), glufosinate-monoammonium salt]
[1]; 200 g of a.s./ha
  Herbicidal action (%) against AGRRE: 0%
[1]; 300 g of a.s./ha
  Herbicidal action (%) against AGRRE: 0%
[1]; 400 g of a.s./ha
  Herbicidal action (%) against AGRRE: 11%
[1]; 600 g of a.s./ha
  Herbicidal action (%) against AGRRE: 15%
[1]; 1000 g of a.s./ha
  Herbicidal action (%) against AGRRE: 74%
[2]; 125 g of a.s./ha
  Herbicidal action (%) against Fagopyrum esculentum: 10%
[2]; 200 g of a.s./ha
  Herbicidal action (%) against Fagopyron esculentum: 10%
[2]; 250 g of a.s./ha
  Herbicidal action (%) against Fagopyrum esculentum: 20%
[2]; 330 g of a.s./ha
  Herbicidal action (%) against Fagopyron esculentum: 20%
[2]; 500 g of a.s./ha
  Herbicidal action (%) against Fagopyron esculentum: 55%
  Herbicidal action (%) against Fagopyrum esculentum: 55%
[3]; 200 g of a.s./ha
  Herbicidal action (%) against SETVI: 72%
[3]; 300 g of a.s./ha
  Herbicidal action (%) against SETVI: 72%
[3]; 400 g of a.s./ha
  Herbicidal action (%) against SETVI: 69%
[3]; 600 g of a.s./ha
  Herbicidal action (%) against SETVI: 69%
[3]; 1000 g of a.s./ha
  Herbicidal action (%) against SETVI: 74%
